Source: ChEMBL document CHEMBL3627718, “Design, synthesis and preliminary bioactivity studies of imidazolidine-2,4-dione derivatives as Bcl-2 inhibitors” (Bioorg Med Chem, 2015)

Legend:
[1] = biological target: Apoptosis regulator Bcl-2 (Homo sapiens, UniProt P10415); experiment: Competitive binding affinity to Bcl-2 (unknown origin) preincubated for 30 mins followed by 5-FAM-Bid-BH3 peptide addition measured after 20 mins by fluorescence polarization assay
K562 = experiment: Cytotoxicity against human K562 cells assessed as inhibition of cell proliferation after 48 hrs by MTT assay; type: functional, cell-based; settings: K562, 48 h
PC-3 = experiment: Cytotoxicity against human PC3 cells assessed as inhibition of cell proliferation after 48 hrs by MTT assay; type: functional, cell-based; settings: PC-3, 48 h
MDA-MB-231 = experiment: Cytotoxicity against human MDA-MB-231 cells assessed as inhibition of cell proliferation after 48 hrs by MTT assay; type: functional, cell-based; settings: MDA-MB-231, 48 h
Bcl-2-like protein 1 = Bcl-2-like protein 1 (Homo sapiens, UniProt Q07817); experiment: Competitive binding affinity to Bcl-XL (unknown origin) preincubated for 30 mins followed by 5-FAM-Bid-BH3 peptide addition measured after 20 mins by fluorescence polarization assay
[2] = biological target: Induced myeloid leukemia cell differentiation protein Mcl-1 (Homo sapiens, UniProt Q07820); experiment: Competitive binding affinity to Mcl-1 (unknown origin) preincubated for 30 mins followed by 5-FAM-Bid-BH3 peptide addition measured after 20 mins by fluorescence polarization assay
Induced myeloid leukemia cell differentiation protein Mcl-1, sequence (Q07820 whole entry): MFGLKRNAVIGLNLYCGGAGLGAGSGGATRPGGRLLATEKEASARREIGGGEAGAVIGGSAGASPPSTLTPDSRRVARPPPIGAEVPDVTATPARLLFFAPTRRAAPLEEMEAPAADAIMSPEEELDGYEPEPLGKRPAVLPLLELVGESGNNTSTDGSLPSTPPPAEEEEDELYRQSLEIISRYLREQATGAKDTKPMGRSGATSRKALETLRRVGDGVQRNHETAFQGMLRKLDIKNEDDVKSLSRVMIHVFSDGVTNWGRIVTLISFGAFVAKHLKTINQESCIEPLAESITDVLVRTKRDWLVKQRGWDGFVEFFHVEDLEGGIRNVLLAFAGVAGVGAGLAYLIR

Bcl-2-like protein 1, sequence (Q07817 whole entry): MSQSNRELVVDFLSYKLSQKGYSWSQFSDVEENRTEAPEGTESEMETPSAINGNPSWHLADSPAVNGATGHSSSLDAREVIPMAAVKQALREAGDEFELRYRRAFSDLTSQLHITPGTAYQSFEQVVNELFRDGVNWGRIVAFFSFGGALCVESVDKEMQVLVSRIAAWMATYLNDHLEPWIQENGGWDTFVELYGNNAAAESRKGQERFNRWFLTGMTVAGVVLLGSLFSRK
Apoptosis regulator Bcl-2, sequence (P10415 whole entry): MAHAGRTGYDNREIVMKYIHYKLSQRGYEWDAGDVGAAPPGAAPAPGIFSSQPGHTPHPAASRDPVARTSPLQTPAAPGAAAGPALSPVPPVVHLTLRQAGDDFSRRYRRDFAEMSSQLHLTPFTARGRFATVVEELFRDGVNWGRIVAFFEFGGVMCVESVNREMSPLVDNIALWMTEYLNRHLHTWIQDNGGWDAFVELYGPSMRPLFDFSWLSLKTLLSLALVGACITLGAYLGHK

## Cc1ccc(S(=O)(=O)NC(=O)[C@H](Cc2ccccc2)N2C(=O)/C(=C/c3ccc(-c4ccccc4)cc3)SC2=S)cc1
[1]
  Ki: 0.62 µM
K562
  IC50: 44.9 µM
PC-3
  IC50: 39.8 µM
MDA-MB-231
  IC50: 35.2 µM

## O=C(Nc1ccc(O)cc1)[C@H](Cc1ccccc1)N1C(=O)N[C@@H](Cc2ccc(-c3ccc(Cl)cc3)cc2)C1=O
[1]
  Ki: > 50 µM

## COC(=O)[C@H](Cc1ccccc1)NC(=O)[C@H](Cc1ccccc1)N1C(=O)N[C@@H](Cc2ccc(-c3ccc(Cl)cc3)cc2)C1=O
[1]
  Ki: > 50 µM

## O=C(O)[C@H](Cc1ccccc1)NC(=O)[C@H](Cc1ccccc1)N1C(=O)N[C@@H](Cc2ccc(-c3ccc(Cl)cc3)cc2)C1=O
[1]
  Ki: > 50 µM

## O=C(O)[C@H](Cc1ccccc1)N1C(=O)N[C@@H](Cc2ccccc2)C1=O
[1]
  Ki: > 50 µM

## O=C(O)[C@H](Cc1ccccc1)N1C(=O)N[C@@H](Cc2ccc(Br)cc2)C1=O
[1]
  Ki: > 50 µM

## O=C(O)[C@H](Cc1ccccc1)N1C(=O)N[C@@H](Cc2ccc(-c3ccc(Cl)cc3)cc2)C1=O
[1]
  Ki: > 50 µM

## Cc1cccc(-c2ccc(C[C@@H]3NC(=O)N([C@@H](Cc4ccccc4)C(=O)O)C3=O)cc2)c1
[1]
  Ki: > 50 µM

## O=C(O)[C@H](Cc1ccccc1)N1C(=O)N[C@@H](Cc2ccc(-c3ccnc(F)c3)cc2)C1=O
[1]
  Ki: > 50 µM

## O=C(NS(=O)(=O)c1ccccc1)[C@H](Cc1ccccc1)N1C(=O)N[C@@H](Cc2ccccc2)C1=O
[1]
  Ki: > 50 µM

## O=C(NS(=O)(=O)c1ccc(Cl)c([N+](=O)[O-])c1)[C@H](Cc1ccccc1)N1C(=O)N[C@@H](Cc2ccccc2)C1=O
[1]
  Ki: > 50 µM

## O=C(NS(=O)(=O)c1ccccc1)[C@H](Cc1ccccc1)N1C(=O)N[C@@H](Cc2ccc(Br)cc2)C1=O
[1]
  Ki: > 50 µM

## O=C(NS(=O)(=O)c1ccc(Cl)c([N+](=O)[O-])c1)[C@H](Cc1ccccc1)N1C(=O)N[C@@H](Cc2ccc(Br)cc2)C1=O
[1]
  Ki: > 50 µM

## O=C(NS(=O)(=O)c1ccccc1)[C@H](Cc1ccccc1)N1C(=O)N[C@@H](Cc2ccc(-c3ccc(Cl)cc3)cc2)C1=O
[1]
  Ki: 19 µM

## Cc1ccc(S(=O)(=O)NC(=O)[C@H](Cc2ccccc2)N2C(=O)N[C@@H](Cc3ccc(-c4ccc(Cl)cc4)cc3)C2=O)cc1
[1]
  Ki: > 50 µM

## O=C(NS(=O)(=O)c1ccc(Cl)c([N+](=O)[O-])c1)[C@H](Cc1ccccc1)N1C(=O)N[C@@H](Cc2ccc(-c3ccc(Cl)cc3)cc2)C1=O
[1]
  Ki: 3.7 µM
Bcl-2-like protein 1
  Ki: 6.1 µM
[2]
  Ki: 2.9 µM
K562
  IC50: 39.4 µM
PC-3
  IC50: 51.7 µM
MDA-MB-231
  IC50: 70.8 µM

## O=C(NS(=O)(=O)c1cccc([N+](=O)[O-])c1)[C@H](Cc1ccccc1)N1C(=O)N[C@@H](Cc2ccc(-c3ccc(Cl)cc3)cc2)C1=O
[1]
  Ki: 15 µM
Bcl-2-like protein 1
  Ki: > 50 µM
[2]
  Ki: > 50 µM
K562
  IC50: 49 µM
PC-3
  IC50: 73.3 µM
MDA-MB-231
  IC50: 76.4 µM

## Cc1cccc(-c2ccc(C[C@@H]3NC(=O)N([C@@H](Cc4ccccc4)C(=O)NS(=O)(=O)c4ccccc4)C3=O)cc2)c1
[1]
  Ki: > 50 µM

## Cc1ccc(S(=O)(=O)NC(=O)[C@H](Cc2ccccc2)N2C(=O)N[C@@H](Cc3ccc(-c4cccc(C)c4)cc3)C2=O)cc1
[1]
  Ki: 13 µM
Bcl-2-like protein 1
  Ki: > 50 µM
[2]
  Ki: > 50 µM
K562
  IC50: 46.9 µM
PC-3
  IC50: 56 µM
MDA-MB-231
  IC50: 63.5 µM

## Cc1cccc(-c2ccc(C[C@@H]3NC(=O)N([C@@H](Cc4ccccc4)C(=O)NS(=O)(=O)c4ccc(Cl)c([N+](=O)[O-])c4)C3=O)cc2)c1
[1]
  Ki: 4.4 µM
Bcl-2-like protein 1
  Ki: 4.7 µM
[2]
  Ki: 2.3 µM
K562
  IC50: 35.1 µM
PC-3
  IC50: 28.4 µM
MDA-MB-231
  IC50: 57.8 µM

## O=Cc1ccc(-c2ccc(C[C@@H]3NC(=O)N([C@@H](Cc4ccccc4)C(=O)NS(=O)(=O)c4ccc(Cl)c([N+](=O)[O-])c4)C3=O)cc2)cc1
[1]
  Ki: 13 µM
Bcl-2-like protein 1
  Ki: > 50 µM
[2]
  Ki: 9.3 µM
K562
  IC50: 68.4 µM
PC-3
  IC50: 63.8 µM
MDA-MB-231
  IC50: 83.4 µM

## O=C(NS(=O)(=O)c1ccccc1)[C@H](Cc1ccccc1)N1C(=O)N[C@@H](Cc2ccc(-c3ccnc(F)c3)cc2)C1=O
[1]
  Ki: > 50 µM

## Cc1ccc(S(=O)(=O)NC(=O)[C@H](Cc2ccccc2)N2C(=O)N[C@@H](Cc3ccc(-c4ccnc(F)c4)cc3)C2=O)cc1
[1]
  Ki: > 50 µM

## O=C(NS(=O)(=O)c1ccc(Cl)c([N+](=O)[O-])c1)[C@H](Cc1ccccc1)N1C(=O)N[C@@H](Cc2ccc(-c3ccnc(F)c3)cc2)C1=O
[1]
  Ki: > 50 µM

## COC(=O)[C@@H](NC(=O)[C@H](Cc1ccccc1)N1C(=O)N[C@@H](Cc2ccc(-c3ccc(Cl)cc3)cc2)C1=O)C(C)C
[1]
  Ki: > 50 µM

## CC(C)[C@H](NC(=O)[C@H](Cc1ccccc1)N1C(=O)N[C@@H](Cc2ccc(-c3ccc(Cl)cc3)cc2)C1=O)C(=O)O
[1]
  Ki: > 50 µM

## CC(=O)Oc1ccc(NC(=O)[C@H](Cc2ccccc2)N2C(=O)N[C@@H](Cc3ccc(-c4ccc(Cl)cc4)cc3)C2=O)cc1
[1]
  Ki: > 50 µM
